{
  "source": "patent US20230037188A1",
  "about": "“TASTEFUL NATURAL SWEETENER AND FLAVOR” (EPC Natural Products Co., Ltd., priority 2018, published 2023)",
  "key": {"[1]": {"assay": "Kinetics of reaction (degradation of Phe with Reb-A, Gluc, Xyl, Suc) in dependence of pH-conditions, HPLC/MS", "assay_type": "physicochemical", "details": "for % formation from degraded Reb-A: reaction of Phe and Reb-A", "procedure": "Quantitative evaluation was performed using external standardization."}, "[2]": {"assay": "Assay to test DPPH radical-scavenging activity", "details": "combinations of amino acids and Reb-A, 100° C., pH 7.8; iron-III reduction and radical scavenging (FIGS. 49, 50)", "procedure": "1 mg 1,1-Diphenyl-2-picrylhydrazyl radical (DPPH)/ml ethanol, dilution to assay concentration were prepared in ethanol (40 μg/mL); Calibration samples were prepared with Ascorbic acid in a concentration of 0-10 μg/mL; as a negative control sample, water was used.\nSamples in aqueous solution were used as such or diluted with water.\nA 0.1 ml sample (or calibration standard) was mixed with 3.9 ml solution of DPPH° (100 μMolar) and reacted while protected from light at room temperature for 30 min. Absorbance was determined at 517 nm against ethanol.\n10 mM of amino acid and/or 10 mM sugar were dissolved in 10 ml 0.1 mM KH2PO4-buffer, pH=7.8.\nThe samples were kept at 100° C. in sealed glass vials (Pyrex 15 ml with screw caps) for 0 (before reaction), 2.5 or 5.0 hours. Thereafter the samples were transferred to an ice water bath and cooled down to room temperature. These samples were diluted 1:10 and used for the test assay for anti-oxidant potential."}, "[3]": {"assay": "Blind descriptive sensory evaluation by trained tasters of differently prepared Stevia-derived MRPs in beverages and ketchup", "assay_type": "in vivo", "details": "added before heating to xylose, phenylalanine and SGA; 150 μl sample per 100 ml", "procedure": "Each sample was added at a concentration of 1500 ppm to freshly prepared lemon juice (squeezed lemons diluted 1:5 with tap water) containing 4% sugar.\nEach sample was added at a concentration of 1000 ppm to Felix Ketchup no added sugar (31.12.2019 L8352, 11:48).\nBefore tasting the tasters discussed the upcoming series of samples and tasted samples with the predetermined attributes (sweetness) with varying intensities to find a common description. Four trained tasters blind taste tested independently all samples of a series. They were allowed to re-taste and prepared notes for sensory attributes perceived including the relative intensity.\nIn the last step the attributes noted were discussed openly to find an acceptable description. In case that more than 1 taster disagreed with the description, the tasting was repeated.\nBefore tasting the tasters discussed the upcoming series of samples and tasted samples with the predetermined attributes with varying intensities to find commonality for the description. Four trained tasters blind taste tested independently all samples of a series. They were allowed to re-taste and made notes for the sensory attributes perceived including the relative intensity.\nIn the last step the attributes noted were discussed openly to find an agreeable description. In case that more than 1 taster disagreed with thedescription, the tasting was repeated. […]"}, "[4]": {"assay": "Sensory evaluation of combinations of EPCalin (Thaumatin), GSGs and SGs and NHDC in water", "assay_type": "in vivo", "details": "4.5 ppm Thaumatin (10 ppm EPCalin) and/or 50 ppm GSGs and SGs, NHDC 1-5 ppm", "procedure": "4.5 ppm Thaumatin (equivalent to 10 ppm EPCalin) were dissolved in water. Increasing amounts of NHDC (1-5 ppm) were added to the solution and the sensory properties were evaluated.\n50 ppm (GSGs and SGs) were dissolved in water. Increasing amounts of NHDC (1-5 ppm) were added to the solution and the sensory properties were evaluated.\n50 ppm (GSGs and SGs) and 4.5 ppm Thaumatin (equivalent to 10 ppm EPCalin) were dissolved in water. Increasing amounts of NHDC (1-5 ppm) were added to the solution and the sensory properties were evaluated.\nSweetness intensity was rated on 5-point scale"}},
  "note": "Entries after “also recorded” stand apart in the source; their conditions may differ.",
  "data": [
    {"smiles": "C=C1C[C@@]23CC[C@H]4[C@@](C)(CCC[C@@]4(C)C(=O)O)[C@@H]2CC[C@]1(O[C@@H]1O[C@H](CO)[C@@H](O)[C@H](O[C@@H]2O[C@H](CO)[C@@H](O)[C@H](O)[C@H]2O)[C@H]1O[C@@H]1O[C@H](CO)[C@@H](O)[C@H](O)[C@H]1O)C3", "note": "[Reb-B]", "values": [
      {"measurement": "% formation from degraded Reb-A", "setting": "[1]; pH = 5.5", "result": 23.1, "unit": "%"},
      {"measurement": "% formation from degraded Reb-A", "setting": "[1]; pH = 7.0", "result": 22.7, "unit": "%"},
      {"measurement": "% formation from degraded Reb-A", "setting": "[1]; pH = 8.5", "result": 19.1, "unit": "%"}
    ]},
    {"smiles": "C=C1C[C@@]23CC[C@H]4[C@@](C)(CCC[C@@]4(C)C(=O)O[C@@H]4O[C@H](CO)[C@@H](O)[C@H](O)[C@H]4O)[C@@H]2CC[C@]1(O[C@@H]1O[C@H](CO)[C@@H](O)[C@H](O[C@@H]2O[C@H](CO)[C@@H](O)[C@H](O)[C@H]2O)[C@H]1O[C@@H]1O[C@H](CO)[C@@H](O)[C@H](O)[C@H]1O)C3", "note": "[Reb-A, Rebaudioside A]", "values": [
      {"measurement": "anti-oxidant properties", "setting": "[2]", "result": "substantial anti-oxidant properties"}
    ]},
    {"smiles": "OC[C@H]1OC(O)[C@H](O)[C@@H](O)[C@@H]1O", "note": "(stereo partly shown) [Glu]", "values": [
      {"measurement": "% degradation", "setting": "[1]; reaction of Phe and Gluc, pH = 7.0, 1.0 h, 120° C.", "result": 4.6, "unit": "%"}
    ]},
    {"smiles": "COc1ccc(CCC(=O)c2c(O)cc(O[C@@H]3O[C@H](CO)[C@@H](O)[C@H](O)[C@H]3O[C@@H]3O[C@@H](C)[C@H](O)[C@@H](O)[C@H]3O)cc2O)cc1O", "note": "[NHDC, Neohesperidin dihydrochalcone]", "values": [
      {"measurement": "taste profile in Redbull sugar free", "setting": "[3]", "result": "improved the mouth-feel and harmony of taste impression yielding a substantially improved taste profile"},
      {"measurement": "sweetness, onset, mouth-feel and lingering in words", "setting": "[4]", "result": "long lasting lingering; also recorded: boosts the lingering"}
    ]}
  ]
}
